From article PMC6482847 (Molecular microbiology, 2019) come the findings set out here.

The assay addresses T1, FtsZAT (Agrobacterium fabrum, UniProt A9CIB1).
T1 sequence (A9CIB1 1-583): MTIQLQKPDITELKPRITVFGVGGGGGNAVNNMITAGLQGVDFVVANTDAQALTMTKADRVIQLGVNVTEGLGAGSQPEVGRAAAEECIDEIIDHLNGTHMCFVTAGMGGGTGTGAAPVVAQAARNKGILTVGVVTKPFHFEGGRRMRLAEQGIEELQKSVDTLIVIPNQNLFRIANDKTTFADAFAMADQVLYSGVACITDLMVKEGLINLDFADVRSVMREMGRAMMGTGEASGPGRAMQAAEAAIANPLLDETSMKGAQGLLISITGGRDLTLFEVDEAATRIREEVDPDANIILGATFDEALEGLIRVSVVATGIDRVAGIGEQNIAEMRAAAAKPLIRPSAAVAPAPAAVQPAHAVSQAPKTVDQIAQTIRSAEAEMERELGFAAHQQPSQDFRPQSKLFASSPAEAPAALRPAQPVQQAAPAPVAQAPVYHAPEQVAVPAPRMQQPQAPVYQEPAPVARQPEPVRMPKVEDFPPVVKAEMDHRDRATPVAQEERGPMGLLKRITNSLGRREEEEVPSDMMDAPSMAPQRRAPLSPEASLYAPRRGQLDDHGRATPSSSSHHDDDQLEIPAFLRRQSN
Description: GTPase assay, inorganic phosphate release. It is filed as biochemical. As to conditions: 2 mM GTP, 8 µM FtsZAT, 2.5 mM MgCl2, 50 mM HEPES-KOH pH 7.2, 50 mM KCl, 0.1 mM EDTA.

Turning to `Nc1nc2c(ncn2[C@@H]2O[C@H](COP(=O)(O)OP(=O)(O)OP(=O)(O)O)[C@@H](O)[C@H]2O)c(=O)[nH]1` [GTP], the “GTPase assay, inorganic phosphate release (colorimetric)” value was “it rapidly releases inorganic phosphate suggesting that GTP is hydrolyzed”.
